Measurements: the supplement of paper PMC7017272
± gives the standard deviation of the averaged measurements.

Experiments:
UT-SCC-106A [1] = experiment: maximal % inhibition of viability relative to DMSO; higher = stronger effect; conditions: treatment time: 3 days
In short: (§1)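 HPV-negative HNSCC cell lines were plated at 500 cells/well in 384-well plates, either on plastic, on wells coated with Matrigel or Myogel (500 µg/mL), or embedded in Matrigel or Myogel plus rat collagen I. Each compound was tested at five 10-fold concentrations over 3 days. Viability was measured by CellTiter-Glo 2.0 luminescence, and IC50, maximal inhibition and drug sensitivity score came from percent-inhibition dose–response curves fitted in the FIMM pipeline after normalisation to vehicle (0.1% DMSO) and cell-killing control wells.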

UT-SCC-40 [2] = experiment: as above; conditions: treatment time: 3 days
In short: as §1

UT-SCC-42A [3] = experiment: as above; conditions: treatment time: 3 days
In short: as §1

UT-SCC-28 [4] = experiment: as above; conditions: treatment time: 3 days
In short: as §1

UT-SCC-73 [5] = experiment: as above; conditions: treatment time: 3 days
In short: as §1

UT-SCC-44 [6] = experiment: as above; conditions: treatment time: 3 days
In short: as §1

UT-SCC-24B [7] = experiment: as above; conditions: treatment time: 3 days
In short: as §1

UT-SCC-8 [8] = experiment: as above; conditions: treatment time: 3 days
In short: as §1

UT-SCC-106A [9] = experiment: relative IC50 (midpoint of the fitted curve; maximal inhibition may be below 50%); higher = less potent; conditions: treatment time: 3 days
In short: as §1

UT-SCC-14 = experiment: as above; conditions: treatment time: 3 days
In short: as §1

UT-SCC-40 [10] = experiment: as above; conditions: treatment time: 3 days
In short: as §1

UT-SCC-42A [11] = experiment: as above; conditions: treatment time: 3 days
In short: as §1

UT-SCC-42B = experiment: as above; conditions: treatment time: 3 days
In short: as §1

UT-SCC-81 = experiment: as above; conditions: treatment time: 3 days
In short: as §1

UT-SCC-28 [12] = experiment: as above; conditions: treatment time: 3 days
In short: as §1

UT-SCC-73 [13] = experiment: as above; conditions: culture condition: embedded in Matrigel; treatment time: 3 days
In short: as §1

UT-SCC-44 [14] = experiment: as above; conditions: treatment time: 3 days
In short: as §1

UT-SCC-24B [15] = experiment: as above; conditions: treatment time: 3 days
In short: as §1

UT-SCC-8 [16] = experiment: as above; conditions: treatment time: 3 days
In short: as §1

[17] = culture condition: embedded in Matrigel
[18] = culture condition: embedded in Myogel + collagen I
[19] = culture condition: on top of Matrigel
[20] = culture condition: on top of Myogel
[21] = culture condition: plastic 2D (no matrix)

With `CN(C)C/C=C/C(=O)Nc1cc2c(Nc3ccc(F)c(Cl)c3)ncnc2cc1O[C@H]1CCOC1` [Afatinib] the “maximal % inhibition of viability” value (UT-SCC-106A [1]; [17]) was 43.3 ± 3.5%, the “maximal % inhibition of viability” value (UT-SCC-106A [1]; [18]) was 7.93 ± 2.1% and the “maximal % inhibition of viability” value (UT-SCC-106A [1]; [19]) was 56.6 ± 1.3%. The “maximal % inhibition of viability” value (UT-SCC-106A [1]; [20]) was 8.37 ± 4.6%, the “maximal % inhibition of viability” value (UT-SCC-106A [1]; [21]) was 60.4 ± 4.3% and the “maximal % inhibition of viability” value (UT-SCC-40 [2]; [17]) was 80.3 ± 2.6%. For the same compound, the “maximal % inhibition of viability” value (UT-SCC-40 [2]; [18]) was 26.2 ± 14%, the “maximal % inhibition of viability” value (UT-SCC-40 [2]; [19]) was 74.2 ± 2.8% and the “maximal % inhibition of viability” value (UT-SCC-40 [2]; [20]) was 22.6 ± 4.6%. The “maximal % inhibition of viability” value (UT-SCC-40 [2]; [21]) was 59.8 ± 7.3%, the “maximal % inhibition of viability” value (UT-SCC-42A [3]; [17]) was 51.6 ± 4% and the “maximal % inhibition of viability” value (UT-SCC-42A [3]; [18]) was 13.4 ± 9.6%. The “maximal % inhibition of viability” value (UT-SCC-42A [3]; [19]) was 54 ± 2.1%, the “maximal % inhibition of viability” value (UT-SCC-42A [3]; [20]) was 26.6 ± 1.1% and the “maximal % inhibition of viability” value (UT-SCC-42A [3]; [21]) was 50.7 ± 2.2%. For the same compound, the “maximal % inhibition of viability” value (UT-SCC-28 [4]; [17]) was 3.87 ± 5.3%, the “maximal % inhibition of viability” value (UT-SCC-28 [4]; [18]) was 14.7 ± 6.2% and the “maximal % inhibition of viability” value (UT-SCC-28 [4]; [19]) was 12 ± 4%. For the same compound, the “maximal % inhibition of viability” value (UT-SCC-28 [4]; [21]) was 8.87 ± 2.8%, the “maximal % inhibition of viability” value (UT-SCC-73 [5]; [17]) was 20.2 ± 7.8% and the “maximal % inhibition of viability” value (UT-SCC-73 [5]; [18]) was 25.6 ± 22%. The “maximal % inhibition of viability” value (UT-SCC-73 [5]; [19]) was 17.1 ± 3.4%, the “maximal % inhibition of viability” value (UT-SCC-73 [5]; [20]) was 11.5 ± 7.3% and the “maximal % inhibition of viability” value (UT-SCC-73 [5]; [21]) was 16.7 ± 4.8%. For the same compound, the “maximal % inhibition of viability” value (UT-SCC-44 [6]; [17]) was 7.03 ± 6.5%, the “maximal % inhibition of viability” value (UT-SCC-44 [6]; [18]) was 1 ± 1.7% and the “maximal % inhibition of viability” value (UT-SCC-44 [6]; [19]) was 9.97 ± 9.3%. The “maximal % inhibition of viability” value (UT-SCC-44 [6]; [20]) was 9.63 ± 7.3%, the “maximal % inhibition of viability” value (UT-SCC-44 [6]; [21]) was 4.6 ± 5.6% and the “maximal % inhibition of viability” value (UT-SCC-24B [7]; [17]) was 63.2 ± 3%. For the same compound, the “maximal % inhibition of viability” value (UT-SCC-24B [7]; [18]) was 37.8 ± 14%, the “maximal % inhibition of viability” value (UT-SCC-24B [7]; [19]) was 56.5 ± 1.6% and the “maximal % inhibition of viability” value (UT-SCC-24B [7]; [20]) was 21.4 ± 3.8%. The “maximal % inhibition of viability” value (UT-SCC-24B [7]; [21]) was 71.4 ± 3.5%, the “maximal % inhibition of viability” value (UT-SCC-8 [8]; [17]) was 96.67 ± 0.42% and the “maximal % inhibition of viability” value (UT-SCC-8 [8]; [18]) was 22.4 ± 19%. The “maximal % inhibition of viability” value (UT-SCC-8 [8]; [19]) was 94.3 ± 0.36%, the “maximal % inhibition of viability” value (UT-SCC-8 [8]; [20]) was 45.4 ± 12% and the “maximal % inhibition of viability” value (UT-SCC-8 [8]; [21]) was 90.7 ± 1.6%. The “relative IC50” value (UT-SCC-106A [9]; [17]) was 8.12 nM, the “relative IC50” value (UT-SCC-106A [9]; [18]) was > 989 nM and the “relative IC50” value (UT-SCC-106A [9]; [19]) was 7.76 nM. The “relative IC50” value (UT-SCC-106A [9]; [21]) was 11.7 nM, the “relative IC50” value (UT-SCC-14; [17]) was 30.7 nM and the “relative IC50” value (UT-SCC-14; [19]) was 39.6 nM. The “relative IC50” value (UT-SCC-14; [20]) was 47.4 nM, the “relative IC50” value (UT-SCC-14; [21]) was 40.8 nM and the “relative IC50” value (UT-SCC-40 [10]; [17]) was 21.3 nM. For the same compound, the “relative IC50” value (UT-SCC-40 [10]; [19]) was 24.2 nM, the “relative IC50” value (UT-SCC-40 [10]; [21]) was 33.1 nM and the “relative IC50” value (UT-SCC-42A [11]; [17]) was 28.9 nM. For the same compound, the “relative IC50” value (UT-SCC-42A [11]; [19]) was 11.4 nM, the “relative IC50” value (UT-SCC-42A [11]; [20]) was 21.2 nM and the “relative IC50” value (UT-SCC-42A [11]; [21]) was 19 nM. For the same compound, the “relative IC50” value (UT-SCC-42B; [17]) was 17.3 nM, the “relative IC50” value (UT-SCC-42B; [19]) was 17.7 nM and the “relative IC50” value (UT-SCC-42B; [21]) was 27.5 nM. The “relative IC50” value (UT-SCC-81; [17]) was 6.81 nM, the “relative IC50” value (UT-SCC-81; [19]) was 15.3 nM and the “relative IC50” value (UT-SCC-81; [21]) was 35.7 nM. For the same compound, the “relative IC50” value (UT-SCC-28 [12]; [17]) was > 989 nM, the “relative IC50” value (UT-SCC-28 [12]; [18]) was > 989 nM and the “relative IC50” value (UT-SCC-73 [13]) was 32 nM. For the same compound, the “relative IC50” value (UT-SCC-44 [14]; [18]) was > 989 nM, the “relative IC50” value (UT-SCC-44 [14]; [21]) was > 989 nM and the “relative IC50” value (UT-SCC-24B [15]; [17]) was 31.2 nM. The “relative IC50” value (UT-SCC-24B [15]; [19]) was 23 nM, the “relative IC50” value (UT-SCC-24B [15]; [21]) was 12.7 nM and the “relative IC50” value (UT-SCC-8 [16]; [17]) was 19.7 nM. For the same compound, the “relative IC50” value (UT-SCC-8 [16]; [19]) was 21 nM and the “relative IC50” value (UT-SCC-8 [16]; [21]) was 21.6 nM.
